The text below walks through data of PubChem BioAssay AID330 (DTP/NCI, 2004).

Where “and” joins values, the source holds several entries; their conditions need not be identical. Identical values can stand only once. Toxic doses and inconclusive results are not listed.

In the assay the test system is P388 leukemia ip, CD2F1 mice, survival T/C. Put plainly: NCI In Vivo Anticancer Drug Screen. Data for tumor model P388 Leukemia (intraperitoneal) in CD2F1 (CDF1) mice. As to conditions: endpoint: median survival time, higher = longer survival. Put shortly: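 Mice carrying the transplanted tumor received test compound or vehicle. Survival was recorded in each group, and the value is the treated-group measurement divided by that of the vehicle-treated control group.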

[1] abbreviates: dose: 100.0 mg/kg/injection, schedule: Q04DX003 (ip), vehicle: saline with Tween-80.
The mark [2] stands for this setting: dose: 50.0 mg/kg/injection, schedule: Q01DX009 (ip), vehicle: saline with Tween-80.
[3] abbreviates: dose: 100.0 mg/kg/injection, schedule: Q01DX009 (ip), vehicle: saline with Tween-80.
Where [4] appears, read: dose: 200.0 mg/kg/injection, schedule: Q01DX009 (ip), vehicle: saline with Tween-80.
Setting [5] is: dose: 50.0 mg/kg/injection, schedule: Q01DX009 (ip), vehicle: Klucel (hydroxypropylcellulose) (HPC).
The mark [6] stands for this setting: dose: 100.0 mg/kg/injection, schedule: Q01DX009 (ip), vehicle: Klucel (hydroxypropylcellulose) (HPC).
Setting [7] is: dose: 200.0 mg/kg/injection, schedule: Q01DX009 (ip), vehicle: Klucel (hydroxypropylcellulose) (HPC).

For the molecule `CCC(C)C1NC(=O)C(NC(=O)c2c3[nH]c4c(C(=O)NC5C(=O)NC(C(C)CC)C(=O)N6CCCC6C(=O)N(C)CC(=O)N(C)C(C(C)C)C(=O)OC5C)ccc(C)c4oc-3c(C)c(=O)c2=O)C(C)OC(=O)C(C(C)C)N(C)C(=O)CN(C)C(=O)C2CCCN2C1=O` (centres undefined), the T/C reads like this: (dose: 0.05 mg/kg/injection, schedule: Q01DX009 (ip), vehicle: water) 99 % of control; (dose: 0.1 mg/kg/injection, schedule: Q01DX009 (ip), vehicle: water) 104 % of control; (dose: 0.2 mg/kg/injection, schedule: Q01DX009 (ip), vehicle: water) 95 % of control; (dose: 0.4 mg/kg/injection, schedule: Q01DX009 (ip), vehicle: water) 100 % of control and 104 % of control; (dose: 0.8 mg/kg/injection, schedule: Q01DX009 (ip), vehicle: water) 101 % of control and 96 % of control; (dose: 1.6 mg/kg/injection, schedule: Q01DX009 (ip), vehicle: water) 102 % of control and 110 % of control. The T/C by setting is: (dose: 3.2 mg/kg/injection, schedule: Q01DX009 (ip), vehicle: water) 110 % of control; (dose: 6.4 mg/kg/injection, schedule: Q01DX009 (ip), vehicle: water) 123 % of control.

On to `Cc1ccc(N=S(C)(C)=O)cc1`, for which the T/C is, setting by setting: (dose: 100.0 mg/kg/injection, schedule: Q01DX001 (ip), vehicle: saline with Tween-80) 103 % of control; (dose: 200.0 mg/kg/injection, schedule: Q01DX001 (ip), vehicle: saline with Tween-80) 104 % of control; (dose: 400.0 mg/kg/injection, schedule: Q01DX001 (ip), vehicle: saline with Tween-80) 102 % of control.

Consider `CC1CC2OC(/C=C/C=C/C=C\C=C\C=C\C(O)=C3\C(=O)C(C(C)C)N(C)C3=O)C(O)C2O1` (centres undefined), for which the T/C (dose: 3.0 mg/kg/injection, schedule: Q01DX005 (ip), vehicle: Klucel (hydroxypropylcellulose) (HPC)) is 120 % of control and 124 % of control.

For the molecule `CCCCCCCCCCCCCCCC(=O)N(CCCN(C)C)C(C)(C)CCC(C)(C)N(CCCN(C)C)C(=O)CCCCCCCCCCCCCCC`, the T/C by setting is: (dose: 25.0 mg/kg/injection, schedule: Q01DX009 (ip), vehicle: other) 98 % of control; (dose: 50.0 mg/kg/injection, schedule: Q01DX009 (ip), vehicle: other) 96 % of control.

`CC(=O)SCC(C)CCl` (centres undefined): the T/C by setting is: under setting [1], 100 % of control; (dose: 200.0 mg/kg/injection, schedule: Q04DX003 (ip), vehicle: saline with Tween-80) 109 % of control.

With `CC(=O)OCC1(C)NC(=O)c2ccccc2O1` (centres undefined), the T/C is, setting by setting: under setting [2], 109 % of control (2×) and 120 % of control; under setting [3], 114 % of control and 118 % of control; under setting [4], 100 % of control.

Regarding `COC(=O)/C=C\SC(=S)C1CCCC1=N` (centres undefined), the T/C was 98 % of control under setting [2], 94 % of control under setting [3] and 91 % of control under setting [4].

With `COc1ccc(Cl)cc1NC(=O)NNC(=O)C(=O)NC1CC1`, the T/C under setting [2] is 100 % of control, the T/C under setting [3] is 97 % of control and the T/C under setting [4] was 102 % of control.

Regarding `[O-]/[N+](=C\c1ccccc1)C(c1ccccc1)c1ccccc1`, the T/C runs as follows: (dose: 25.0 mg/kg/injection, schedule: Q04DX003 (ip), vehicle: saline) 100 % of control; (dose: 50.0 mg/kg/injection, schedule: Q04DX003 (ip), vehicle: saline) 100 % of control; (dose: 100.0 mg/kg/injection, schedule: Q04DX003 (ip), vehicle: saline) 100 % of control.

For the molecule `CC12CC(C(=O)O)C3(O)CC(C)(C1)CC(C)(C2)C3` (centres undefined) (tested in a mixture with another compound), the T/C was 109 % of control under setting [5] and 118 % of control under setting [6].

Consider `COC(=O)C(Br)CCCC(Br)C(=O)OC` (centres undefined), for which the T/C is, setting by setting: (dose: 25.0 mg/kg/injection, schedule: Q01DX009 (ip), vehicle: distilled water + Tween-80) 97 % of control; (dose: 50.0 mg/kg/injection, schedule: Q01DX009 (ip), vehicle: distilled water + Tween-80) 106 % of control; (dose: 100.0 mg/kg/injection, schedule: Q01DX009 (ip), vehicle: distilled water + Tween-80) 103 % of control; (dose: 200.0 mg/kg/injection, schedule: Q01DX009 (ip), vehicle: distilled water + Tween-80) 104 % of control.

On to `CCOC(=O)c1cccc(N)c1C(=O)OCCN(CC)CC`, for which the T/C runs as follows: (dose: 50.0 mg/kg/injection, schedule: Q01DX005 (ip), vehicle: Klucel (hydroxypropylcellulose) (HPC)) 93 % of control; (dose: 100.0 mg/kg/injection, schedule: Q01DX005 (ip), vehicle: Klucel (hydroxypropylcellulose) (HPC)) 87 % of control; (dose: 200.0 mg/kg/injection, schedule: Q01DX005 (ip), vehicle: Klucel (hydroxypropylcellulose) (HPC)) 99 % of control.

As for `COc1c(CNC(=O)CCl)cc2[nH]c(C)cc2c1CNC(=O)CCl`, the T/C was 153 % of control under setting [6] and 150 % of control under setting [7].

Consider `Cc1cc(C2(O)CCCc3ccccc32)[n+]([O-])cc1C` (centres undefined), for which the T/C by setting is: (dose: 50.0 mg/kg/injection, schedule: Q01DX005 (ip), vehicle: saline + Tween-80 + alcohol) 106 % of control; (dose: 100.0 mg/kg/injection, schedule: Q01DX005 (ip), vehicle: saline + Tween-80 + alcohol) 104 % of control; (dose: 200.0 mg/kg/injection, schedule: Q01DX005 (ip), vehicle: saline + Tween-80 + alcohol) 107 % of control.

Take `COc1ccc(-c2cc(=O)c3ccc4cc(OC)c(OC)cc4c3o2)cc1`: the T/C reads like this: (dose: 12.5 mg/kg/injection, schedule: Q01DX009 (ip), vehicle: other) 91 % of control; (dose: 100.0 mg/kg/injection, schedule: Q01DX009 (ip), vehicle: other) 88 % of control; (dose: 200.0 mg/kg/injection, schedule: Q01DX009 (ip), vehicle: other) 91 % of control.

On to `COc1ccc2c(c1)CCC1C2CCC2(C)C1CCC2(O)CCOS(=O)(=O)c1ccc(C)cc1` (centres undefined), for which the T/C runs as follows: under setting [5], 97 % of control; under setting [2], 100 % of control; under setting [6], 97 % of control; under setting [3], 99 % of control; under setting [7], 94 % of control; under setting [4], 104 % of control.

As to `CCOS(=O)(=O)CC(C)C(C)C` (centres undefined), the T/C by setting is: (dose: 50.0 mg/kg/injection, schedule: Q01DX005 (ip), vehicle: saline with Tween-80) 98 % of control; (dose: 100.0 mg/kg/injection, schedule: Q01DX005 (ip), vehicle: saline with Tween-80) 104 % of control; (dose: 200.0 mg/kg/injection, schedule: Q01DX005 (ip), vehicle: saline with Tween-80) 101 % of control.

For `COc1ccc(C(=O)N2CC(O)=CC2=O)cc1`, the T/C by setting is: under setting [5], 105 % of control; under setting [6], 107 % of control; under setting [7], 92 % of control.

`CN(C)CCC(=O)c1ccc(Cl)cc1`: the T/C was 106 % of control (dose: 50.0 mg/kg/injection, schedule: Q01DX009 (ip), vehicle: saline) and 105 % of control (dose: 100.0 mg/kg/injection, schedule: Q01DX009 (ip), vehicle: saline).

Consider `Cc1cc(NC(=S)SCc2ccc(F)cc2)ccc1Br`, for which the T/C reads like this: under setting [5], 112 % of control and 122 % of control; (dose: 50.0 mg/kg/injection, schedule: Q01DX009 (ip), vehicle: suspension in saline) 93 % of control; under setting [6], 114 % of control and 115 % of control; (dose: 100.0 mg/kg/injection, schedule: Q01DX009 (ip), vehicle: suspension in saline) 94 % of control; (dose: 200.0 mg/kg/injection, schedule: Q01DX009 (ip), vehicle: suspension in saline) 109 % of control.

For `CC(=O)OC1CCC2C(=CCC3C2(C)C(=O)CC2(C)C(C4(C)OC(C(C)C)=CC4=O)C(O)CC32C)C1(C)C` (centres undefined), the T/C (dose: 9.63 mg/kg/injection, schedule: Q01DX005 (ip), vehicle: saline + Tween-80 + alcohol) was 111 % of control; the T/C (dose: 19.25 mg/kg/injection, schedule: Q01DX005 (ip), vehicle: saline + Tween-80 + alcohol) was 111 % of control; the T/C (dose: 38.5 mg/kg/injection, schedule: Q01DX005 (ip), vehicle: saline + Tween-80 + alcohol) is 106 % of control; the T/C (dose: 77.0 mg/kg/injection, schedule: Q01DX005 (ip), vehicle: saline + Tween-80 + alcohol) is 97 % of control.

For the molecule `Clc1ccc(CSSCc2ccc(Cl)cc2)cc1`, the T/C was 100 % of control (dose: 12.5 mg/kg/injection, schedule: Q04DX003 (ip), vehicle: saline with Tween-80); 100 % of control (dose: 25.0 mg/kg/injection, schedule: Q04DX003 (ip), vehicle: saline with Tween-80); 100 % of control (dose: 50.0 mg/kg/injection, schedule: Q04DX003 (ip), vehicle: saline with Tween-80); 107 % of control under setting [1].

For `CC1(C)CCCC2(C)C1CCC1(C)OC(/C(=C\CO)CO)CC12` (centres undefined), the T/C runs as follows: under setting [5], 96 % of control; under setting [6], 86 % of control.
